Assay results: patent publication US11787775B2, “Therapeutic compounds and methods of use” (priority 2020, dated 2023)

How the values were obtained:
Type in all cases: binding
[1] = target: TEAD1 (Homo sapiens (Human), UniProt P28347); assay: TEAD lipid pocket TR-FRET (Lipid HTRF) probe competition assay; settings: 30 mins incubation with compound; read-out: Lipid HTRF TEAD1 IC50
Procedure: (§1) His-tagged TEAD proteins are pre-incubated with TEAD project compounds for 30 minutes or 4 hours at room temperature. Biotinylated lipid pocket probes are then added to the TEAD/Compound mixture and incubated for 60 minutes at room temperature. The lipid pocket probe competes with the test compound for the TEAD lipid pocket until equilibrium is reached. After 60 minutes, Europium labelled anti-His (Perkin Elmer #ADO 110) and XL665 labelled streptavidin (CIS Bio 610SAXAC) are added to the TEAD/test compound/lipid pocket mixture and incubated for 30 minutes or 4 hours. […] If a TEAD lipid pocket binder such as binds and displaces the lipid pocket probe, the disruption of the TEAD:probe interaction results in a decrease in TR-FRET signal. The potency of compounds as TEAD lipid pocket binders is determined by IC50 value generated using a non-linear 4 parameter curve fit.
(§2) Note that the “Compound Number” in Table 2 and Table 3 corresponds to the “Compound Number” in Table 1.

[2] = target: TEAD2 (Homo sapiens (Human), UniProt Q15562); assay: as above; settings: 30 mins incubation with compound; read-out: Lipid HTRF TEAD2 IC50
Procedure: as §1, §2

[3] = target: TEAD3 (Homo sapiens (Human), UniProt Q99594); assay: as above; settings: 30 mins incubation with compound
Procedure: as §1, §2

[4] = target: TEAD4 (Homo sapiens (Human), UniProt Q15561); assay: as above; settings: 30 mins incubation with compound; read-out: Lipid HTRF TEAD4 IC50
Procedure: as §1, §2

[5] = target: TEAD1 YAP50-100 (Homo sapiens (Human), UniProt P28347); assay: TEAD-YAP protein-protein interaction HTRF assay; settings: TEAD1 YAP50-100 HTRF combined EC50, 30 mins incubation with compound
Procedure: (§3) Purified His-tagged TEAD protein (YAP Binding Domain, amino acids 217-447) is pre-incubated with Europium labelled anti-His antibody tracer (Perkin Elmer Cat #AD0110). Small molecule Inhibitors are then incubated with the TEAD-Eu protein complex for 30 minutes or 4 hours to allow for binding to TEAD protein. Biotinylated YAP peptide for TEAD-YAP assays (AA's 50-100) or biotinylated TAZ peptide for TEAD-TAZ assays (AA's 13-57) that has been pre-incubated with streptavidin −xl665 acceptor (CIS-Bio Cat #610SAXAC) or is added to the compound-TEAD mix. The TEAD-YAP-inhibitor mixture is then incubated for 60 minutes at room temperature. All reactions are carried out in a polystyrene plate. After 60 minutes, the plate is read on a plate reader using TR-FRET mode with wavelengths of 665 nm/615 nm. If YAP or TAZ binds to TEAD as expected, a TR-FRET signal results from the proximity of YAP or TAZ and TEAD after binding. If an inhibitor such as peptide 17 (Selleckchem Cat #S8164) interferes with YAP-TEAD or TAZ-TEAD binding, the disruption of the YAP or TAZ:TEAD interaction results in a decrease in TR-FRET signal. The potency of compounds as YAP:TEAD or TAZ:TEAD protein-protein interaction (PPi) inhibitors is determined by an IC50 or EC50 value generated using a non-linear four parameter curve fit. The extent to which representative examples of the disclosed compounds are able to inhibit interaction between TEAD1, TEAD2, TEAD3 or TEAD4 and YAP truncated from amino acids 50-100 or TAZ truncated from amino acids 13-57 as measured by Homogeneous Time Resolved Fluorescence (HTRF) to generate EC50 and IC50 data.
(§4) Note that the “Compound Number” in Table 4 corresponds to the “Compound Number” in Table 1. […]

[6] = target: TEAD2 YAP50-100 (Homo sapiens (Human), UniProt Q15562); assay: TEAD-YAP protein-protein interaction HTRF assay; settings: TEAD2 YAP50-100 HTRF combined EC50, 30 mins incubation with compound
Procedure: as §3, §4

[7] = target: TEAD3 YAP50-100 (Homo sapiens (Human), UniProt Q99594); assay: TEAD-YAP protein-protein interaction HTRF assay; settings: TEAD3 YAP50-100 HTRF combined EC50, 30 mins incubation with compound
Procedure: as §3, §4

[8] = target: TEAD4 YAP50-100 (Homo sapiens (Human), UniProt Q15561); assay: TEAD-YAP protein-protein interaction HTRF assay; settings: TEAD4 YAP50-100 HTRF combined EC50, 30 mins incubation with compound
Procedure: as §3, §4

TEAD4 YAP50-100, sequence (Q15561 217-434): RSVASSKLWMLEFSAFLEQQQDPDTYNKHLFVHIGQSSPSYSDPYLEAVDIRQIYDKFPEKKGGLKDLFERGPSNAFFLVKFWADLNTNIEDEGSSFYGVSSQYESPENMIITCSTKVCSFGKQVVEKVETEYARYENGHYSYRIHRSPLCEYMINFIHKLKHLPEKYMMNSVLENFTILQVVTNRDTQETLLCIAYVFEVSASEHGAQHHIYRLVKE
TEAD1, sequence (P28347 whole entry, species assumed): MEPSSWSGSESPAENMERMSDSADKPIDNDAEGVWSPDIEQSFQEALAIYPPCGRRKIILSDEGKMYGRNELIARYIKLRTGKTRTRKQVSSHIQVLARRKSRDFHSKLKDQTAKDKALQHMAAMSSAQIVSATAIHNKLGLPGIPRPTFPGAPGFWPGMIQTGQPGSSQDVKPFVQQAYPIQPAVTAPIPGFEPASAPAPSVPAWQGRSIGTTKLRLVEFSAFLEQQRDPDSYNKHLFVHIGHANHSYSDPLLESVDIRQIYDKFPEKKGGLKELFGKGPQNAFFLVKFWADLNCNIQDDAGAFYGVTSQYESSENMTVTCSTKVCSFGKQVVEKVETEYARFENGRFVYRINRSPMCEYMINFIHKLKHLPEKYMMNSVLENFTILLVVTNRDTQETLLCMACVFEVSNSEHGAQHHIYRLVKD
TEAD3 YAP50-100, sequence (Q99594 218-435): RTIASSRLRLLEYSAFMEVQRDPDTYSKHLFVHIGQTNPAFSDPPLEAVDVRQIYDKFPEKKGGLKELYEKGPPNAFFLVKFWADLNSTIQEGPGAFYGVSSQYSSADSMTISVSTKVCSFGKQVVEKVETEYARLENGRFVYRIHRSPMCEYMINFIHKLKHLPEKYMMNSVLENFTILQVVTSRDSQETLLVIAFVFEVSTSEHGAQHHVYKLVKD
TEAD4, sequence (Q15561 whole entry, species assumed): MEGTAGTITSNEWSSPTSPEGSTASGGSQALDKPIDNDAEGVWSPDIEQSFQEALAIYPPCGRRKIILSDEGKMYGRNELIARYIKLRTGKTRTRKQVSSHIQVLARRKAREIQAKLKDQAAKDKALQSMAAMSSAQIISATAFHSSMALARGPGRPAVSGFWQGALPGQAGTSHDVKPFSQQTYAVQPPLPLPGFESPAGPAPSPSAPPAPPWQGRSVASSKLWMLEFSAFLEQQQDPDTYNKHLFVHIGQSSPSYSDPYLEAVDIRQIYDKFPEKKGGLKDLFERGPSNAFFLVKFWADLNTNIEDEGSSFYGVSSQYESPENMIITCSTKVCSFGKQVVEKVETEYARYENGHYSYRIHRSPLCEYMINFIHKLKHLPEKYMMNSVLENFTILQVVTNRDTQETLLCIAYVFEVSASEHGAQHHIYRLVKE
TEAD3, sequence (Q99594 whole entry, species assumed): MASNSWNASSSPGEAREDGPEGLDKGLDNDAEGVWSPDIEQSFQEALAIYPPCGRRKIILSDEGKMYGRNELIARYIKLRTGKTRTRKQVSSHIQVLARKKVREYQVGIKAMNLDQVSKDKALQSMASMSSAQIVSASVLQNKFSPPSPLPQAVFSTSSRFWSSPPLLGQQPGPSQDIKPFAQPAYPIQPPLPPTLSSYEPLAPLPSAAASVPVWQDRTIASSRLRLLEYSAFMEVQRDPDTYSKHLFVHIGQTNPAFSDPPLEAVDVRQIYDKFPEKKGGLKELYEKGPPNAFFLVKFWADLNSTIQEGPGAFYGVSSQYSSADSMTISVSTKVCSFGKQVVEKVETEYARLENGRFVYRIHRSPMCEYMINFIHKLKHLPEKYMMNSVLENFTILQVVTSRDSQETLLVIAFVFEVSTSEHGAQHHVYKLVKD
TEAD2, sequence (Q15562 whole entry): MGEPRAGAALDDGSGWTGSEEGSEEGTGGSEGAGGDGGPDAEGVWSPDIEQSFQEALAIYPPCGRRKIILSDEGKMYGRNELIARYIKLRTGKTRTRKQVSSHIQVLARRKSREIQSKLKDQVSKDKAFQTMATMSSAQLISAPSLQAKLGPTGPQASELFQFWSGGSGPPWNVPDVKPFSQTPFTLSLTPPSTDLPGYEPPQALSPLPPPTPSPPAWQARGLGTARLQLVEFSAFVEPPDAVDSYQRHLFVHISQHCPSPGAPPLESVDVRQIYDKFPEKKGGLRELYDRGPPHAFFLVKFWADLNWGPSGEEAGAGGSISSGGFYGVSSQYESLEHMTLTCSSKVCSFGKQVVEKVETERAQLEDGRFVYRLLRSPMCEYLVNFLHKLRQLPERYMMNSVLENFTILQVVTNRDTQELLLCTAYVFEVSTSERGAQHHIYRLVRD
TEAD1 YAP50-100, sequence (P28347 209-426): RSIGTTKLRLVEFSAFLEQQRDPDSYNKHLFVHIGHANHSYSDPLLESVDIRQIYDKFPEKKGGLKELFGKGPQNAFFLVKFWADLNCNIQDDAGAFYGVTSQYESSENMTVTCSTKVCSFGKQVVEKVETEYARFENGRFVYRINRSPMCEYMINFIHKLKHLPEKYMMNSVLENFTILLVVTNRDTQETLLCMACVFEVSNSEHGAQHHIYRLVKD
TEAD2 YAP50-100, sequence (Q15562 217-447): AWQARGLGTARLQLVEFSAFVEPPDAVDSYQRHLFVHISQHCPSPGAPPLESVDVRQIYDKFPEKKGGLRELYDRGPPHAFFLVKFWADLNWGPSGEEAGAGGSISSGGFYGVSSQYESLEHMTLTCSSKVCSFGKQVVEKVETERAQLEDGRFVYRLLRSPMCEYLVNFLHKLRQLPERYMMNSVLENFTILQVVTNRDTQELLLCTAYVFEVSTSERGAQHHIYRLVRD

C=C(CNc1cc(-c2ccc(C(C)C(F)(F)F)cc2)c2c(c1C#N)CCO2)C(=O)O (single isomer, unassigned) [Enantiomer C from Example 16, 2-(((4-cyano-7-(4-(1,1,1-trifluoropropan-2-yl)phenyl)-2,3-dihydrobenzofuran-5-yl)amino)methyl)acrylic acid]
IC50 [1]: 20 nM | IC50 [2]: 40 nM | IC50 [3]: 3000 nM | IC50 [4]: 10 nM | EC50 [5]: 10 nM | EC50 [6]: 20 nM | EC50 [7]: 5900 nM | EC50 [8]: 10 nM

C=C(CNc1cc(-c2ccc(C(C)C(F)(F)F)cc2)c2c(c1C#N)CCO2)C(=O)O (single isomer, unassigned) [Enantiomer D from Example 16, 2-(((4-cyano-7-(4-(1,1,1-trifluoropropan-2-yl)phenyl)-2,3-dihydrobenzofuran-5-yl)amino)methyl)acrylic acid]
IC50 [1]: 80 nM | IC50 [2]: 160 nM | IC50 [3]: 6100 nM | IC50 [4]: 30 nM | EC50 [5]: 40 nM | EC50 [6]: 70 nM | EC50 [7]: > 50000 nM | EC50 [8]: 100 nM

C=C(CNc1cc2c(c(-c3ccc(C(C)C)cc3)c1)OCC2)C(=O)O [Compound 1, 2-[[[7-(4-isopropylphenyl)-2,3-dihydrobenzofuran-5-yl]amino]methyl]prop-2-enoic acid]
IC50 [1]: 220 nM | IC50 [2]: 220 nM | IC50 [3]: 8400 nM | IC50 [4]: 40 nM | EC50 [5]: 170 nM | EC50 [6]: 100 nM | EC50 [7]: > 50000 nM | EC50 [8]: 50 nM

C=C(CNc1cc2c(c(-c3ccc(C(C)C)cc3)c1)OCC2)C(N)=O [Compound 2, 2-[[[7-(4-isopropylphenyl)-2,3-dihydrobenzofuran-5-yl]amino]methyl]prop-2-enamide]
IC50 [1]: 590 nM | IC50 [2]: 80 nM | IC50 [3]: 18000 nM | IC50 [4]: 30 nM | EC50 [5]: 460 nM | EC50 [6]: 70 nM | EC50 [7]: 18000 nM | EC50 [8]: 90 nM

C=C(CNc1cc(-c2ccc(C(C)C)cc2)c2c(c1C#N)CCO2)C(=O)O [Compound 3, 2-[[[4-cyano-7-(4-isopropylphenyl)-2,3-dihydrobenzofuran-5-yl]amino]methyl]prop-2-enoic acid]
IC50 [1]: 20 nM | IC50 [2]: 60 nM | IC50 [3]: 2880 nM | IC50 [4]: 20 nM | EC50 [5]: 20 nM | EC50 [6]: 30 nM | EC50 [7]: 6220 nM | EC50 [8]: 30 nM

C=C(CNc1cc(-c2ccc(C(C)C)cc2)c2c(c1C#N)CCO2)C(N)=O [Compound 4, 2-[[[4-cyano-7-(4-isopropylphenyl)-2,3-dihydrobenzofuran-5-yl]amino]methyl]prop-2-enamide]
IC50 [1]: 320 nM | IC50 [2]: 100 nM | IC50 [3]: 10000 nM | IC50 [4]: 80 nM | EC50 [5]: 230 nM | EC50 [6]: 50 nM | EC50 [7]: 13000 nM | EC50 [8]: 160 nM

C=C(CNc1cc(-c2ccc(C(C)C)cc2)c2c(c1C#N)CCO2)C(=O)NC [Compound 5, 2-[[[4-cyano-7-(4-isopropylphenyl)-2,3-dihydrobenzofuran-5-yl]amino]methyl]-N-methyl-prop-2-enamide]
IC50 [1]: 1600 nM | IC50 [2]: 2000 nM | IC50 [3]: > 50000 nM | IC50 [4]: 1300 nM | EC50 [5]: > 50000 nM | EC50 [6]: > 50000 nM | EC50 [7]: > 50000 nM | EC50 [8]: > 50000 nM

C=C(CNc1cc(-c2ccc(C(C)C)cc2)c2c(c1C#N)CCO2)C(=O)N(C)C [Compound 6, 2-[[[4-cyano-7-(4-isopropylphenyl)-2,3-dihydrobenzofuran-5-yl]amino]methyl]-N,N-dimethyl-prop-2-enamide]
IC50 [1]: 1100 nM | IC50 [2]: 3500 nM | IC50 [3]: > 50000 nM | IC50 [4]: 500 nM | EC50 [5]: 970 nM | EC50 [6]: 2800 nM | EC50 [7]: > 50000 nM | EC50 [8]: 1000 nM

C=C(CN(C)c1cc(-c2ccc(C(C)C)cc2)c2c(c1C#N)CCO2)C(=O)O [Compound 7, 2-[[[4-cyano-7-(4-isopropylphenyl)-2,3-dihydrobenzofuran-5-yl]-methyl-amino]methyl]prop-2-enoic acid]
IC50 [1]: 540 nM | IC50 [2]: 230 nM | IC50 [3]: 14000 nM | IC50 [4]: 160 nM | EC50 [5]: 510 nM | EC50 [6]: 180 nM | EC50 [7]: > 50000 nM | EC50 [8]: 430 nM

C=C(CNc1cc(-c2ccc(C(C)C)cc2)c2c(c1C#N)CCO2)C(=O)OC [Compound 8, methyl 2-[[[4-cyano-7-(4-isopropylphenyl)-2,3-dihydrobenzofuran-5-yl]amino]methyl]prop-2-enoate]
IC50 [1]: 70 nM | IC50 [2]: 40 nM | IC50 [3]: 240 nM | IC50 [4]: 20 nM | EC50 [5]: > 50000 nM | EC50 [6]: > 50000 nM | EC50 [7]: > 50000 nM | EC50 [8]: > 50000 nM

C=C(CNc1cc(-c2ccc(C(C)C)cc2)c2c(c1C#N)CCO2)C(=O)NO [Compound 9, 2-[[[4-cyano-7-(4-isopropylphenyl)-2,3-dihydrobenzofuran-5-yl]amino]methyl]prop-2-enehydroxamic acid]
IC50 [1]: 280 nM | IC50 [2]: 110 nM | IC50 [3]: 2400 nM | IC50 [4]: 120 nM | EC50 [5]: 190 nM | EC50 [6]: 50 nM | EC50 [7]: 2200 nM | EC50 [8]: 280 nM

C=C(CNc1cc(-c2ccc(C(C)C)cc2)c2c(c1C#N)CCO2)B(O)O [Compound 10, 1-[[[4-cyano-7-(4-isopropylphenyl)-2,3-dihydrobenzofuran-5-yl]amino]methyl]vinylboronic acid]
IC50 [1]: 6300 nM | IC50 [2]: 2700 nM | IC50 [3]: > 50000 nM | IC50 [4]: 1300 nM | EC50 [5]: 5700 nM | EC50 [6]: 2100 nM | EC50 [7]: > 50000 nM | EC50 [8]: 2100 nM

C=C(CNc1cc(-c2ccc(C(C)C)cc2)c2c(c1C#N)CCO2)C(C)=O [Compound 11, 7-(4-isopropylphenyl)-5-[(2-methylene-3-oxo-butyl)amino]-2,3-dihydrobenzofuran-4-carbonitrile]
IC50 [1]: 180 nM | IC50 [2]: 80 nM | IC50 [3]: 130 nM | IC50 [4]: 40 nM | EC50 [5]: 320 nM | EC50 [6]: 130 nM | EC50 [7]: 200 nM | EC50 [8]: 80 nM

C=C(CNc1cc(-c2ccc(C(C)C)cc2)c2c(c1CO)CCO2)C(=O)O [Compound 12, 2-[[[4-(hydroxymethyl)-7-(4-isopropylphenyl)-2,3-dihydrobenzofuran-5-yl]amino]methyl]prop-2-enoic acid]
IC50 [1]: 1500 nM | IC50 [2]: 930 nM | IC50 [3]: 47000 nM | IC50 [4]: 470 nM | EC50 [5]: 780 nM | EC50 [6]: 300 nM | EC50 [7]: > 50000 nM | EC50 [8]: 750 nM

C=C(CNc1cc(-c2ccc(C(C)C)cc2)c2c(c1CO)CCO2)C(N)=O [Compound 13, 2-[[[4-(hydroxymethyl)-7-(4-isopropylphenyl)-2,3-dihydrobenzofuran-5-yl]amino]methyl]prop-2-enamide]
IC50 [1]: 780 nM | IC50 [2]: 220 nM | IC50 [3]: 11000 nM | IC50 [4]: 180 nM | EC50 [5]: 330 nM | EC50 [6]: 40 nM | EC50 [7]: 22000 nM | EC50 [8]: 180 nM

C=C(CNc1cc(-c2ccc(C(C)C)cc2)c2c(c1CO)CCO2)C(=O)NO [Compound 14, 2-[[[4-(hydroxymethyl)-7-(4-isopropylphenyl)-2,3-dihydrobenzofuran-5-yl]amino]methyl]prop-2-enehydroxamic acid]
IC50 [1]: 520 nM | IC50 [2]: 120 nM | IC50 [3]: 2400 nM | IC50 [4]: 420 nM | EC50 [5]: 280 nM | EC50 [6]: 70 nM | EC50 [7]: 3400 nM | EC50 [8]: 890 nM
